Measured values: patent publication US20130203649A1, “INHIBITORS OF TLR SIGNALING BY TARGETING TIR DOMAIN INTERFACES” (UNIVERSITY OF MARYLAND, BALTIMORE, priority 2012, published 2013)
Residues, ends and D or L forms follow the SMILES beside them. No end group written: not given here.

Tests used:
TLR4 [1] = test: Inhibition of TLR4 signaling in thioglycollate-elicited mouse macrophages (effective concentration, overall inhibitory activity); type: cell-based; settings: for Inhibition of TLR4 signaling (overall): LPS-stimulated mouse macrophages; for Effective conc.: TLR4 pathway, thioglycollate-elicited mouse macrophages
Outline: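 Thioglycollate-elicited peritoneal macrophages from C57BL/6J mice, adherent after overnight culture in RPMI with 2% FBS; cell-permeating (Antennapedia-fused) decoy peptides added 30 min before agonist. TLR4 stimulated with E. coli K235 LPS at 100 ng/ml final.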

TLR4 [2] = test: LPS-induced cytokine mRNA expression in mouse macrophages (real-time RT-PCR); type: cell-based; settings: for LPS-induced IFNβ and Rantes cytokine mRNA production / LPS-induced IL-1β mRNA production: 5 μM peptide; for LPS-induced IFNβ and Rantes cytokine mRNA production / LPS-induced IL-1β mRNA production / LPS-induced IL-1β, IFNβ, and RANTES mRNA / LPS-induced TNFα mRNA expression: LPS 10 ng/ml, 1 h
Procedure: C57BL/6J mice were obtained from The Jackson Laboratory (Bar Harbor, Me.). Primary peritoneal macrophages were obtained by peritoneal lavage 4 days after intraperitoneal injection (3 ml) of sterile 3% thioglycolate broth. Washed cells were resuspended in RPMI 1640 which contained 2% FBS, 1% penicillin:streptomycin and 2 mM L-glutamine. After plating, cells were incubated overnight at 37° C. and then washed with PBS to remove non-adherent cells. Cells were exposed to peptides 30 min before stimulation with a TLR agonist.
Total cellular RNA was isolated using Tripure from Roche (San Francisco, Calif.) following manufacture's protocol. RNA was then reverse transcribed using AMV Reverse Transcriptase from Promega (Madison, Wis.) with poly-T priming as per manufacturer's directions. cDNA was then quantified by real-time PCR using Applied Biosystems Fast SYBR Green PCR Master Mix and an ABI Prism 7500HT cycler. Primers used for detection: hypoxanthine phosphoribosyltransferase (HPRT) (forward: […] (SEQ ID NO:51), reverse: […] (SEQ ID NO:52)), TNFα (forward: […] (SEQ ID NO:53), reverse: […] (SEQ ID NO:54)), IL-1β (forward: […] (SEQ ID NO:55), reverse: […] (SEQ ID NO:56)), IFNβ (forward: […] (SEQ ID NO:57), reverse: CTCGGACCACCATCCAGG (SEQ ID NO:58)) and RANTES (forward: […] (SEQ ID NO:59), reverse: […] (SEQ ID NO:60)). The primers were designed using Primer Express 2.0 (Applied Biosystems). Using HPRT as reference, the ΔCt method was used to calculate relative gene expression. One-way ANOVA was preformed, as well as Dunnett's multiple comparison post hoc test with a p≦0.01 selected as the level of significance.
Total RNA was isolated with Nucleospin RNA II kits (Macherey-Nagel, Bethlehem, Pa.), followed by DNase digestion. cDNA was synthesized from 1 μg RNA using Goscript transcriptase (Promega), and subjected to real-time PCR with gene-specific primers for HPRT, TNF-α, IL-1β, IFNβ, and RANTES on H7900 ABI system using Fast SYBR Green master mix (Applied Biosystems, Foster City, Calif.).
To evaluate peptide-inhibitory activities, we first measured LPS-induced cytokine mRNA expression. […] […] Decoy peptide TM4 is derived from the BB loop of TRAM TIR; we previously identified this peptide as an effective TLR4 inhibitor (19).

Compound: CC[C@H](C)[C@H](NC(=O)[C@H](CCCCN)NC(=O)[C@@H](NC(=O)[C@H](CCC(N)=O)NC(=O)[C@@H](N)CCCNC(=N)N)[C@@H](C)CC)C(=O)N[C@@H](Cc1c[nH]c2ccccc12)C(=O)N[C@@H](Cc1ccccc1)C(=O)N[C@@H](CCC(N)=O)C(=O)N[C@@H](CC(N)=O)C(=O)N[C@@H](CCCNC(=N)N)C(=O)N[C@@H](CCCNC(=N)N)C(=O)N[C@@H](CCSC)C(=O)N[C@@H](CCCCN)C(=O)N[C@@H](Cc1c[nH]c2ccccc12)C(=O)N[C@@H](CCCCN)C(=O)N[C@@H](CCCCN)C(=O)N[C@@H](CCC(=O)O)C(=O)N[C@@H](CC(C)C)C(=O)N[C@@H](CS)C(=O)N[C@@H](CCC(N)=O)C(=O)N[C@@H](C)C(=O)N[C@@H](CC(C)C)C(=O)N[C@@H](CO)C(=O)N[C@@H](CCCNC(=N)N)C(=O)N[C@@H](CO)C(=O)N[C@@H](Cc1c[nH]cn1)C(=O)N[C@@H](CS)C(=O)N[C@@H](CCCNC(=N)N)C(=O)O [TR5] (H-RQIKIWFQNRRMKWKKELCQALSRSHCR-OH)
- Inhibition of TLR4 signaling (overall) (TLR4 [1]): potently inhibited
- Effective conc. (TLR4 [1]): 20 µM
- LPS-induced IFNβ and Rantes cytokine mRNA production (TLR4 [2]): significantly inhibited
- LPS-induced IL-1β mRNA production (TLR4 [2]): moderately inhibited
- LPS-induced IL-1β, IFNβ, and RANTES mRNA (TLR4 [2]; 20 μM peptide): stronger inhibition
- LPS-induced TNFα mRNA expression (TLR4 [2]; 20 μM peptide): inhibit potently

Compound: RQIKIWFQNRRMKWKKAAYPPELRFMYYVD [TR9]
- Inhibition of TLR4 signaling (overall) (TLR4 [1]): potently inhibited
- Effective conc. (TLR4 [1]): 20 µM
- LPS-induced IFNβ and Rantes cytokine mRNA production (TLR4 [2]): significantly inhibited
- LPS-induced IL-1β mRNA production (TLR4 [2]): moderately inhibited
- LPS-induced IL-1β, IFNβ, and RANTES mRNA (TLR4 [2]; 20 μM peptide): stronger inhibition
- LPS-induced TNFα mRNA expression (TLR4 [2]; 20 μM peptide): inhibit potently

Compound: RQIKIWFQNRRMKWKKCLQDAIDHSGFT [TF5]
- Effective conc. (TLR4 [1]): 20 µM
- LPS-induced (TLR4-mediated) cytokine mRNA expression (TLR4 [2]; 5 or 20 μM peptide 30 min before LPS, 1 or 5 h): inhibit

Compound: RQIKIWFQNRRMKWKKEGSQASLRCF [TR3]
- Inhibition of TLR4 signaling (overall) (TLR4 [1]): potently inhibited
- LPS-induced IFNβ and Rantes cytokine mRNA production (TLR4 [2]): significantly inhibited
- LPS-induced IL-1β mRNA production (TLR4 [2]): moderately inhibited
- LPS-induced IL-1β, IFNβ, and RANTES mRNA (TLR4 [2]; 20 μM peptide): stronger inhibition
- LPS-induced TNFα mRNA expression (TLR4 [2]; 20 μM peptide): inhibit potently

Compound: RQIKIWFQNRRMKWKKGGFYQVKEAVIHY [TR11]
- Inhibition of TLR4 signaling (overall) (TLR4 [1]): potently inhibited
- Effective conc. (TLR4 [1]): 20 µM
- LPS-induced IFNβ and Rantes cytokine mRNA production (TLR4 [2]): significantly inhibited
- LPS-induced IL-1β mRNA production (TLR4 [2]): moderately inhibited
- LPS-induced IL-1β, IFNβ, and RANTES mRNA (TLR4 [2]; 20 μM peptide): stronger inhibition
- LPS-induced TNFα mRNA expression (TLR4 [2]; 20 μM peptide): inhibit potently

Compound: RQIKIWFQNRRMKWKKPGFLRDPWCKYQML [TR6]
- Inhibition of TLR4 signaling (overall) (TLR4 [1]): potently inhibited
- LPS-induced IFNβ and Rantes cytokine mRNA production (TLR4 [2]): significantly inhibited
- LPS-induced IL-1β mRNA production (TLR4 [2]): moderately inhibited
- LPS-induced transcriptional activation of IL-1β and IFN-β genes (TLR4 [2]; 20 μM peptide): blocked
- LPS-induced IL-1β, IFNβ, and RANTES mRNA (TLR4 [2]; 20 μM peptide): stronger inhibition
- LPS-induced TNFα mRNA expression (TLR4 [2]; 20 μM peptide): inhibit potently
